The text below walks through data of ChEMBL document CHEMBL5537119 (Eur J Med Chem, 2024).

The subject of experiment [1] is THP-1. Put plainly: cells. Conditions: Homo sapiens, THP-1, 72 h.
Description: Antiproliferative activity against human THP-1 cells assessed as inhibition of cell growth incubated for 72 hrs by MTT assay
The target in a further experiment is Histone deacetylase 1 (Homo sapiens, UniProt Q13547). Put plainly: Inhibition of HDAC1 (unknown origin).
The target of experiment [2] is T1, Protein deacetylase HDAC6 (Homo sapiens, UniProt Q9UBN7).
T1 sequence (Q9UBN7 whole entry): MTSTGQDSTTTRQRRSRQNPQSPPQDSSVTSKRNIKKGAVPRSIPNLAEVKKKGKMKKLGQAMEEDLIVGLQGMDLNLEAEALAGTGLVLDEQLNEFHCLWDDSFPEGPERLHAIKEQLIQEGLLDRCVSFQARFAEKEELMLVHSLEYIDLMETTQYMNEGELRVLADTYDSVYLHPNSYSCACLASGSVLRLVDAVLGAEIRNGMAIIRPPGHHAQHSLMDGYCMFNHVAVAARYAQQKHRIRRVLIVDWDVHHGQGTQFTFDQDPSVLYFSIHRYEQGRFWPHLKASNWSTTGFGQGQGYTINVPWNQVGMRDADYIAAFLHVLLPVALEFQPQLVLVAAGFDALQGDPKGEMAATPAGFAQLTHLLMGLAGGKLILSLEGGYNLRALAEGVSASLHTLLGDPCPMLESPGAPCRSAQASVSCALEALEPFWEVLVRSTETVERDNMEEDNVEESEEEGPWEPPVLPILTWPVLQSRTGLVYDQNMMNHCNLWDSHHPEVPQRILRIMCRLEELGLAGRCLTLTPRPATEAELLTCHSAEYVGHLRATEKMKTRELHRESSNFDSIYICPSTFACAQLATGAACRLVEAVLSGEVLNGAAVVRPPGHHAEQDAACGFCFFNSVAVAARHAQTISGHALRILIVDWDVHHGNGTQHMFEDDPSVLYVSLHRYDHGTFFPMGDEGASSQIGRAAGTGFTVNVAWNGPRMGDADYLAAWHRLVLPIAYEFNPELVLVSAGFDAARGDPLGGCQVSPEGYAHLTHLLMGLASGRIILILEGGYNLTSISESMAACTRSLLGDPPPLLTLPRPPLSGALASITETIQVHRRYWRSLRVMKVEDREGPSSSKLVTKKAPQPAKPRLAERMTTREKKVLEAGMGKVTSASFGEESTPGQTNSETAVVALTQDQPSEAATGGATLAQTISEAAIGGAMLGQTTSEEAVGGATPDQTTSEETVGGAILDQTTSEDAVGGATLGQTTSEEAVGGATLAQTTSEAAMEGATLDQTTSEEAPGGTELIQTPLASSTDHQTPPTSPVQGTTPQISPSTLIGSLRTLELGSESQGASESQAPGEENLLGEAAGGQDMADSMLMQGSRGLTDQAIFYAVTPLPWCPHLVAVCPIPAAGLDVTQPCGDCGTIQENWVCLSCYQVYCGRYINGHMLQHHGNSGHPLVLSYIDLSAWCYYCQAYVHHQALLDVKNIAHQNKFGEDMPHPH
Put plainly: Inhibition of human recombinant HDAC6 using Boc-Lys(Ac)-AMC as substrate preincubated for 5 mins followed by substrate addition and measured after 90 mins by fluorescence based microplate reader analysis.

A further experiment has as its target T2, Histone deacetylase 7 (Homo sapiens, UniProt Q8WUI4).
T2 sequence (Q8WUI4 whole entry): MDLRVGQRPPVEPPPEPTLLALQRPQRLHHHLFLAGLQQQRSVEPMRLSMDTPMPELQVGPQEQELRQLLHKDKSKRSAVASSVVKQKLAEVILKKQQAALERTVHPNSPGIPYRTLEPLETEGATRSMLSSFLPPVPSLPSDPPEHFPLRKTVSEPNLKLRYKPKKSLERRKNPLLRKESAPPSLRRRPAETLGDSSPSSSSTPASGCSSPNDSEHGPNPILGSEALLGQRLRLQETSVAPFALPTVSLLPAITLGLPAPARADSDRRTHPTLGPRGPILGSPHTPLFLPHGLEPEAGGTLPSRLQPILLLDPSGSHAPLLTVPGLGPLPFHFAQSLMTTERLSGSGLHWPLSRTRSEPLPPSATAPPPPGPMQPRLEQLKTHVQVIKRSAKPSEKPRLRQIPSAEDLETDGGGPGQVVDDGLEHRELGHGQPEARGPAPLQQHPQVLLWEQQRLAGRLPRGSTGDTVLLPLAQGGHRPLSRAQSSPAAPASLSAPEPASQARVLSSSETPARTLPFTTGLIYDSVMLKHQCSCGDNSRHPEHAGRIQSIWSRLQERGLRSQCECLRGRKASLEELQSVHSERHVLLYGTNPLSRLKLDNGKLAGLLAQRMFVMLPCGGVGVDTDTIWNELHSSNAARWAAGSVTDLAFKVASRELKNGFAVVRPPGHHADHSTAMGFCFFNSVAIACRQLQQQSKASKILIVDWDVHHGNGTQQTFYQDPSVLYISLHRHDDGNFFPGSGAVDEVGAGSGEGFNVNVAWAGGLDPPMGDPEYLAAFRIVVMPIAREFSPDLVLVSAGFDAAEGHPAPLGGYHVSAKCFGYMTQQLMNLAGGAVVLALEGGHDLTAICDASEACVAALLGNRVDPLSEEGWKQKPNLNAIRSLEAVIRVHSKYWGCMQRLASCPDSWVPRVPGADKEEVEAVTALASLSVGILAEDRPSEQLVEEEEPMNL
Put plainly: Inhibition of HDAC7 (unknown origin).

In experiment [3] the test system is THP-1. Put plainly: Inhibition of Class IIa/8 HDAC in human THP-1 cells at 100 uM preincubated for 18 hrs followed by substrate addition and measured after 3 hrs by fluorescence based microplate reader assay relative to control. Type of experiment: cell-based. The following applies: time 21.0 hrs, values are per cent of control.
The next experiment addresses Histone deacetylase 2 (Homo sapiens, UniProt Q92769). Put plainly: Inhibition of human recombinant HDAC2 using Boc-Lys(Ac)-AMC as substrate preincubated for 5 mins followed by substrate addition and measured after 90 mins by fluorescence based microplate reader analysis.
Experiment [4] has as its system THP-1. Put plainly: Inhibition of Class I/IIb HDAC in human THP-1 cells at 100 uM preincubated for 18 hrs followed by substrate addition and measured after 3 hrs by fluorescence based microplate reader assay relative to control. Type of experiment: cell-based. Conditions: time 21.0 hrs.
In experiment [5] the test system is THP-1. Put plainly: Antiproliferative activity against human THP-1 cells assessed as reduction in cell viability at 100 uM incubated for 72 hrs by MTT assay relative to control. Type of experiment: functional. In general terms: Formazan colour is commonly taken as a measure of viable cells.
For another experiment, the target named is Histone deacetylase 3 (Homo sapiens, UniProt O15379). Put plainly: Inhibition of HDAC3 (unknown origin).
Histone deacetylase 3, sequence (O15379 whole entry): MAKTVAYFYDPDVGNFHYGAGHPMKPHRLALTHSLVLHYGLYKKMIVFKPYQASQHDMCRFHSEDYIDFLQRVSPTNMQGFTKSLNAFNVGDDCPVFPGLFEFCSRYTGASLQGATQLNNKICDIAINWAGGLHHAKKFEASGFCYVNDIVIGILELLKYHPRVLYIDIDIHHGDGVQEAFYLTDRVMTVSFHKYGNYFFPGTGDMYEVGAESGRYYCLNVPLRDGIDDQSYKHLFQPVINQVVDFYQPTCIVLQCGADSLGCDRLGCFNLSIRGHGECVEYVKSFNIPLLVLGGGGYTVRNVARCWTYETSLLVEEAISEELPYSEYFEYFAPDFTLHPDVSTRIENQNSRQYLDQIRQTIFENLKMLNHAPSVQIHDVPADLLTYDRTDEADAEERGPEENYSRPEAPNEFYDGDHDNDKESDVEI

Some results are limits rather than exact numbers.

Histone deacetylase 1, sequence (Q13547 whole entry): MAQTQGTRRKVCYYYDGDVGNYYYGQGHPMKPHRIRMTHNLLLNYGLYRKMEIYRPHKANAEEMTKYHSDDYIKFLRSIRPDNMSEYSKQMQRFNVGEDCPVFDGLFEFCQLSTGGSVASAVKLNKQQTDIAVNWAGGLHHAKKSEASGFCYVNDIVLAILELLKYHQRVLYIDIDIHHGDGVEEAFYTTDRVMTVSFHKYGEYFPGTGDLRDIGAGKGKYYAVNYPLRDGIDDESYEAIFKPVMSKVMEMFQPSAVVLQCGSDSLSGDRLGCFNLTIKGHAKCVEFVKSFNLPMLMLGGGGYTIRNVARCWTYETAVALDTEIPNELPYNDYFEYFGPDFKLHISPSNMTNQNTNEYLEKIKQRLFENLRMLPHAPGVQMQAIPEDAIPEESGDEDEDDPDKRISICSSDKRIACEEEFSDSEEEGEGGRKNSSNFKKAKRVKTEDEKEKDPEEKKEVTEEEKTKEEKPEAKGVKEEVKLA
Histone deacetylase 2, sequence (Q92769 whole entry): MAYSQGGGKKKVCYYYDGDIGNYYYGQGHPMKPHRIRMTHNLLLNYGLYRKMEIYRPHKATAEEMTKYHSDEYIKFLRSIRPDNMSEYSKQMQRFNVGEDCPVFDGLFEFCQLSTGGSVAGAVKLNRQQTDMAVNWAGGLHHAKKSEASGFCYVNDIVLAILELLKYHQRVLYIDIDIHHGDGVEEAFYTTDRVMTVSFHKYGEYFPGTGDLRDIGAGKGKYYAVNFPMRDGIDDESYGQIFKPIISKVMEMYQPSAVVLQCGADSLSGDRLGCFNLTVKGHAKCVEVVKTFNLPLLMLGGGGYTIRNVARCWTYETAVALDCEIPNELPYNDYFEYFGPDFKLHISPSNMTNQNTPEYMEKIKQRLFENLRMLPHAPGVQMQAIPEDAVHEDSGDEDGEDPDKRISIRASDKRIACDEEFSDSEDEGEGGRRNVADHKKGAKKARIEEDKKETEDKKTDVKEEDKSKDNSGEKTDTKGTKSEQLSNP

Usually IC50 stands for the midpoint of a concentration-inhibition curve. For orientation: residual activity means what remains of the control signal, in per cent. One may read the inhibition as the share of the control response that was lost under treatment. Low values mean a weak effect, high ones a strong effect. With `O=C(NOCc1coc(-c2ccccc2)n1)c1ccc(-c2noc(C(F)(F)F)n2)cc1`, the IC50 is approximately 100 µM in the experiment with THP-1 [1]; more than 100 µM against Histone deacetylase 1; more than 100 µM in experiment [2]; 1.97 µM against Histone deacetylase 7; more than 100 µM on Histone deacetylase 2; more than 100 µM on Histone deacetylase 3. This compound also came in with a residual activity in the experiment on THP-1 [3] of 76%. The inhibition with THP-1 [4] turned out to be 0%. The Activity in the experiment with THP-1 [5] is 47%.
